Source: the Kinase Knowledgebase extract (Sharma et al. 2016)

biological target: PIK3CA (human) (UniProt P42336); test: Inhibition of PIK3CA Kinase Activity; conditions: not given
Sequence (P42336 whole entry, looked up): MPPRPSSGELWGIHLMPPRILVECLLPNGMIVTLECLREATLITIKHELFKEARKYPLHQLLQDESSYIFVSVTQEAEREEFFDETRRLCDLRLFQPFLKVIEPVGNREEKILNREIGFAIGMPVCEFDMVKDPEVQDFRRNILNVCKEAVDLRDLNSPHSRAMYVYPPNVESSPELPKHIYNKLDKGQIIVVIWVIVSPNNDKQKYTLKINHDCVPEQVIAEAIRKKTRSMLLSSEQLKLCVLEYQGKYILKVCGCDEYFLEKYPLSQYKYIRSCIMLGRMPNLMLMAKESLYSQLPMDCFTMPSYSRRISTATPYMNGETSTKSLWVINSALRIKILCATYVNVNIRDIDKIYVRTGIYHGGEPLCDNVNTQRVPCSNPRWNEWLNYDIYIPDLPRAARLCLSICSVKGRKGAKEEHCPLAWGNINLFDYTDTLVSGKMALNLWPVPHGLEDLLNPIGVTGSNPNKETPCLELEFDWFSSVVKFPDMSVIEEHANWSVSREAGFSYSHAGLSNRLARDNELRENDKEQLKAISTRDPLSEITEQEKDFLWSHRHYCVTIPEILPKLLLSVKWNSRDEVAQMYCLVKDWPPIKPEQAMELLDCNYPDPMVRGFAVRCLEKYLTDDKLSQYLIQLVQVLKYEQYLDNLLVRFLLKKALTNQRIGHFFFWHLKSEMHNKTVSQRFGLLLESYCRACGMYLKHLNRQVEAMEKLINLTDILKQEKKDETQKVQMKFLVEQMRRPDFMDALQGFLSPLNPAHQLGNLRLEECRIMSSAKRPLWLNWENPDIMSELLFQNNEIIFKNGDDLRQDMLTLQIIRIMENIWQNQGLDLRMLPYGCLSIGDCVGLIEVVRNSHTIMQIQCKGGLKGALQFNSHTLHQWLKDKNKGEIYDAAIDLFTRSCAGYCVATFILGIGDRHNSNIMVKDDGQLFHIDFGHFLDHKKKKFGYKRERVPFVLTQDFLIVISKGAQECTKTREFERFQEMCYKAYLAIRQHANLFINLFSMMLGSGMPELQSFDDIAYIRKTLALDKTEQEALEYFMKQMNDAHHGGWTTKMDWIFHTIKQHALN

IC50 | Compound
1 nM | Cn1ncc2c(Nc3ccc(C(N)=O)cc3)nc(Nc3ccc(NC(=O)Nc4cccnc4)cc3)nc21
340 nM | O=C1NC(=O)/C(=C/c2ccc(-c3cc(F)cc(F)c3O)o2)S1
397 nM | Oc1cccc(-c2nc(N3CCOCC3)c3[nH]cc(C4CCN(Cc5ccc(Cl)nc5)CC4)c3n2)c1

Compound | IC50
Cc1[nH]c2ccc(Br)cc2c1C=C1Oc2cc(O)cc(O)c2C1=O | 179 nM

biological target: PIK3CA (human) (UniProt P42336); test: Enzyme Assay; conditions: not given

IC50 | Kd | Compound
295 nM |  | CN(C)CCCNC(=O)c1cn2cc(-c3cccnc3)nc(N3CCOCC3)c2n1
4200 nM |  | CCN1CC(C)(C)Oc2nc(N3CC4CCC(C3)O4)nc(-c3ccc(NC(=O)Nc4ccn(C)n4)cc3)c2C1=O
108 nM |  | CS(=O)(=O)N1CC2CCC(C1)N2c1cn2cc(-c3cnc(N)nc3)nc(N3CCOCC3)c2n1
6000 nM |  | C[C@@H]1COC[C@@H](C)N1c1nc(Oc2ccc(C(=O)N(C)C)cc2)nc(-c2cnc(N)s2)n1
 | 1230 nM | COc1cc(-c2cncc(NS(=O)(=O)c3ccccc3)c2)cn2c(-c3noc(C)n3)cnc12
16 nM |  | CN1CCN(c2cnc3ccc(-c4cnc(N)c(S(=O)(=O)N(C)C)c4)cc3n2)CC1
617 nM |  | COCCCNC(=O)c1cn2cc(-c3cccnc3)nc(N3CCOCC3)c2n1
1000 nM |  | C[C@@H]1COC[C@H](C)N1c1nc(Oc2ccc(C(=O)N(C)C)cc2F)nc(-c2cnc(N)s2)n1
182 nM |  | O=C(c1cn2cc(-c3cccc4[nH]ncc34)nc(N3CCOCC3)c2n1)N1CCNCC1
1450 nM |  | CCN1CC(C)(C)Oc2nc(N3CCOC[C@@H]3C)nc(-c3ccc(NC(=O)Nc4ccc(C)cn4)cc3)c2C1=O
32 nM |  | COc1ncc(-c2ccc3nnc(C#CC(C)(C)O)n3n2)cc1NS(=O)(=O)c1ccc(F)cc1
> 10000 nM |  | CCN1CC(C)(C)Oc2nc(N3CC4CCC(C3)O4)nc(-c3ccc(NC(=O)Nc4cnccn4)cc3)c2C1=O
 | 430 nM | Cc1nc(-c2cnc3c(Cl)cc(-c4cncc(NS(=O)(=O)c5ccccc5)c4)cn23)no1
> 10000 nM |  | CCN1CC(C)(C)Oc2nc(N3CC4CCC(C3)O4)nc(-c3ccc(NC(=O)N[C@@H](C)CO)c(F)c3)c2C1=O
100 to 1000 nM |  | CS(=O)(=O)N1CCN(c2cnc3c(N4CCOCC4)nc(-c4cccc(O)c4)cn23)CC1
5570 nM |  | CCN1CC(C)(C)Oc2nc(N3[C@@H]4CC[C@H]3COC4)nc(-c3ccc(NC(=O)Nc4ccncc4F)cc3)c2C1=O
 | 7.8 nM | Cc1nc(-c2cnc3c(F)cc(-c4cncc(NS(=O)(=O)c5ccccc5)c4)cn23)no1
< 1000 nM |  | CN(C)C(=O)c1ccc(Nc2nc(-c3ccc(N)nc3)nc(N3CCOCC3)n2)cc1
> 10000 nM |  | COCCN1CC(C)(C)Oc2nc(N3CC4CCC(C3)O4)nc(-c3ccc(NC(=O)Nc4ccon4)cc3)c2C1=O
> 10000 nM |  | CCN1CC(C)(C)Oc2nc(N3CC4CCC(C3)O4)nc(-c3ccc(NC(=O)Nc4ccnc(N5CCC(F)(F)CC5)c4)c(F)c3)c2C1=O
100 to 1000 nM |  | COc1ncc(-c2cn3cc(CN4CCN(S(C)(=O)=O)CC4)nc3c(N3CCOCC3)n2)cn1
> 10000 nM |  | CN1CC(C)(C)Oc2nc(N3CC4CCC(C3)O4)nc(-c3ccc(NC(=O)Nc4ccc(N5CC6CCC(C5)O6)nc4)c(F)c3)c2C1=O
100 to 1000 nM |  | COc1cccc(-c2cn3c(I)c(C)nc3c(N3CCOCC3)n2)c1
 | 47 nM | Cc1nc(-c2cnc3c(C)cc(-c4cncc(NS(=O)(=O)c5ccccc5)c4)cn23)no1

Compound | IC50 | Kd
C=CC(=O)N1CCC[C@@H](n2nc(-c3ccc(Oc4ccccc4)cc3)c3c(N)ncnc32)C1 | > 10000 nM | 

biological target: PIK3CG (human) (UniProt P48736); test: Inhibition of PIK3CG Kinase Activity; conditions: not given
Sequence (P48736 whole entry, looked up): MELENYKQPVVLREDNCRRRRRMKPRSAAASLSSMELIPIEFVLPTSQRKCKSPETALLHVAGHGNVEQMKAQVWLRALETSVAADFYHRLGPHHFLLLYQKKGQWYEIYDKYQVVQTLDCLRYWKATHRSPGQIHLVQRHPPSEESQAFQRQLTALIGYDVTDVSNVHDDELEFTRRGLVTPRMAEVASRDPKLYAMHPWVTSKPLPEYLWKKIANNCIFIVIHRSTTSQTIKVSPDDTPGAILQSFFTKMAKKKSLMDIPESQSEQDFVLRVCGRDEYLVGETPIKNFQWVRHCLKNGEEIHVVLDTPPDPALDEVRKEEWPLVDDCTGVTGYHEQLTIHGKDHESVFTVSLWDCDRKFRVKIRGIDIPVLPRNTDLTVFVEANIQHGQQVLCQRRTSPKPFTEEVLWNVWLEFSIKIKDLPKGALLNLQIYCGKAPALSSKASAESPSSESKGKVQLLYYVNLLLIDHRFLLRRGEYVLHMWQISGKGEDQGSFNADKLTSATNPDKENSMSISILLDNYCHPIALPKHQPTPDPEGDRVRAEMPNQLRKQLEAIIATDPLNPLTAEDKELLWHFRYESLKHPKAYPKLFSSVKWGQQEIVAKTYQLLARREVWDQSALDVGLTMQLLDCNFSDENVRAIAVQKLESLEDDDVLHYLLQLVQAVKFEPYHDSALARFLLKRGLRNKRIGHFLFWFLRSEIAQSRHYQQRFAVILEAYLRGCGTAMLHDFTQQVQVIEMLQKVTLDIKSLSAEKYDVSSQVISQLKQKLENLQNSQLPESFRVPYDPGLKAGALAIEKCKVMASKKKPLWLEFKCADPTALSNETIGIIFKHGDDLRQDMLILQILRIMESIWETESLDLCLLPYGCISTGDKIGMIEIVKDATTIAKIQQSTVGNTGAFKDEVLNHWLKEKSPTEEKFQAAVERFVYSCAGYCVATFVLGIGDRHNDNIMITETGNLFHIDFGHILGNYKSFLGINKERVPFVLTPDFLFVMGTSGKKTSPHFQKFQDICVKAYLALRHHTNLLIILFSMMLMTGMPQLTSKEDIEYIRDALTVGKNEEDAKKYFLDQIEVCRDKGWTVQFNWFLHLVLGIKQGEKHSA

IC50 | Kd | Ki | Compound
7.2 nM | 6.5 nM |  | CC1(C)CCN(C(=O)c2ccc(NC(=O)Nc3ccc(-c4nc(O[C@H]5CCOC5)nc(N5CCOCC5)n4)cc3)cc2)CC1
36 nM |  |  | COc1cc2sc(C(=O)Nc3nnn[nH]3)c(OCC3CCCCCC3)c2cc1OC
430 nM |  |  | COc1ccc(OC)c(Nc2nc3ccccc3nc2NS(=O)(=O)c2cccc(C#N)c2)c1
510 nM |  |  | OCc1cccc(-c2nc(N3CCOCC3)c3cnn(C4CCNCC4)c3n2)c1
27 nM |  |  | COc1cc(Nc2nc3ccccc3nc2NS(=O)(=O)c2ccc(CN(C)C)cc2)cc(OC)c1
20 nM |  |  | O=C1NC(=O)/C(=C/c2ccc3ncn(-c4ccc5c(c4)CCN5S(=O)(=O)CCCN4CCOCC4)c3n2)S1
24 nM |  |  | COc1cc2c(O[C@@H]3CCC[C@@H](C)C3)c(C(=O)Nc3nn[nH]n3)sc2cc1C
68 nM |  |  | Cn1ncc2c(Nc3ccc(C(N)=O)cc3)nc(Nc3ccc(NC(=O)Nc4cccnc4)cc3)nc21
2 nM |  |  | O=C1NC(=S)S/C1=C\c1ccc2ncnc(N3CCC(F)CC3)c2n1
50 nM |  |  | Cc1nc(NC(=O)NCCC(=O)OC(C)(C)C)sc1-c1ccncc1
30 nM |  |  | COc1cc(Nc2nc3ccccc3nc2NS(=O)(=O)c2cccc(C(=O)NCCCN(C)C)c2)cc(OC)c1
6600 nM |  |  | CCn1c(C(=O)Nc2nnn[nH]2)c(-c2ccccc2)c2cc(OC)c(OC)cc21
73 nM |  |  | COc1ccc(OC)c(Nc2nc3ncccc3nc2NS(=O)(=O)c2ccccc2)c1
29 nM |  |  | O=C1NC(=O)/C(=C/c2ccc(-c3cc(F)cc(F)c3O)o2)S1
80 nM |  |  | COc1ccc(OC)c(Nc2nc3ccccc3nc2NS(=O)(=O)c2cn(C)cn2)c1
101 nM |  |  | COc1cc2sc(C(=O)Nc3nnn[nH]3)c(OC3CCCC[C@H]3C)c2cc1OC (stereo partly drawn)

IC50 | Kd | Ki | Compound
1450 nM |  |  | Oc1cccc(-c2nc(N3CCOCC3)c3[nH]cc(C4CCN(Cc5ccc(Cl)nc5)CC4)c3n2)c1
 |  | 4980 nM | Cc1cc(NC(=O)CCNC(=O)Nc2cn3cc(Br)ccc3n2)no1
 |  | 168 nM | CC(C)n1nnc(CCNC(=O)Nc2cn3cc(-c4cncc(F)c4)ccc3n2)n1
240 nM |  |  | COc1ccc(OC)c(Nc2nc3ccccc3nc2NS(=O)(=O)c2ccc3c(c2)sc(=O)n3C)c1
< 200 nM |  |  | COc1ccc(-c2ccc3nc(N)cn3n2)cc1OC
> 10000 nM |  |  | Cc1cc(NCc2ccccc2)c2nc(N3CCOCC3)cc(=O)n2c1
445 nM |  |  | COc1cc2sc(C(=O)Nc3nnn[nH]3)c(OCC3(C)COC3)c2cc1OC
64 nM |  |  | CC(=O)Nc1nc(C)c(-c2csc(NCCC(N)=O)n2)s1
56 nM |  |  | COc1ccc(OC)c(Nc2nc3ccccc3nc2NS(=O)(=O)c2cccnc2)c1
4140 nM |  |  | CCCn1c(C(=O)Nc2nnn[nH]2)c(-c2ccccc2)c2cc(OC)c(OC)cc21
103 nM |  |  | COc1cc2sc(C(=O)Nc3nn[nH]n3)c(O[C@H]3C[C@H](C)C[C@H](C)C3)c2cc1OC
16 nM |  |  | Cc1cc(-c2sc(NC(=O)NCC(=O)N(C)C)nc2C)nc([S+](C)[O-])n1 (stereo not drawn)
32 nM |  |  | COc1cc2sc(C(=O)Nc3nnn[nH]3)c(OC3C[C@@H](C)C[C@@H](C)C3)c2cc1OC (stereo partly drawn)
9 nM |  |  | COc1cc2c(O[C@H]3C[C@@H](C)CC(C)(C)C3)c(C(=O)Nc3nn[nH]n3)sc2cc1C
< 200 nM |  |  | CC(C)(C)NS(=O)(=O)c1cncc(-c2ccc3nc(N)cn3n2)c1
 |  | 570 nM | CC(C)n1nnc(CCNC(=O)Nc2cn3cc(-c4cnc5ccccc5c4)ccc3n2)n1

Compound | IC50 | Kd | Ki
CCN(CC)C(C)=C1C(=O)O[C@H](COC)[C@@]2(C)C1=C(O)C(=O)C1=C2[C@H](OC(C)=O)C[C@]2(C)C(=O)CC[C@@H]12 | 80 nM |  | 
Cc1[nH]c2ccc(Br)cc2c1C=C1Oc2cc(O)cc(O)c2C1=O | 2220 nM |  | 
CC(=O)Nc1nc(C)c(-c2csc(Nc3cccc(-c4nnn[nH]4)c3)n2)s1 | 9 nM |  | 
COC[C@H]1OC(=O)c2coc3c2[C@@]1(C)C1=C(C3=O)[C@@H]2CCC(=O)[C@@]2(C)C[C@H]1O | 26 nM |  | 

same assay, conditions: concentration not given here

inhibition | Compound
13% | O=C1NC(=O)/C(=C/c2ccc(-c3ccc4ccccc4n3)o2)S1

biological target: ROCK2 (human) (UniProt O75116); test: Inhibition of ROCK2 Kinase Activity; conditions: not given
Sequence (O75116 whole entry, looked up): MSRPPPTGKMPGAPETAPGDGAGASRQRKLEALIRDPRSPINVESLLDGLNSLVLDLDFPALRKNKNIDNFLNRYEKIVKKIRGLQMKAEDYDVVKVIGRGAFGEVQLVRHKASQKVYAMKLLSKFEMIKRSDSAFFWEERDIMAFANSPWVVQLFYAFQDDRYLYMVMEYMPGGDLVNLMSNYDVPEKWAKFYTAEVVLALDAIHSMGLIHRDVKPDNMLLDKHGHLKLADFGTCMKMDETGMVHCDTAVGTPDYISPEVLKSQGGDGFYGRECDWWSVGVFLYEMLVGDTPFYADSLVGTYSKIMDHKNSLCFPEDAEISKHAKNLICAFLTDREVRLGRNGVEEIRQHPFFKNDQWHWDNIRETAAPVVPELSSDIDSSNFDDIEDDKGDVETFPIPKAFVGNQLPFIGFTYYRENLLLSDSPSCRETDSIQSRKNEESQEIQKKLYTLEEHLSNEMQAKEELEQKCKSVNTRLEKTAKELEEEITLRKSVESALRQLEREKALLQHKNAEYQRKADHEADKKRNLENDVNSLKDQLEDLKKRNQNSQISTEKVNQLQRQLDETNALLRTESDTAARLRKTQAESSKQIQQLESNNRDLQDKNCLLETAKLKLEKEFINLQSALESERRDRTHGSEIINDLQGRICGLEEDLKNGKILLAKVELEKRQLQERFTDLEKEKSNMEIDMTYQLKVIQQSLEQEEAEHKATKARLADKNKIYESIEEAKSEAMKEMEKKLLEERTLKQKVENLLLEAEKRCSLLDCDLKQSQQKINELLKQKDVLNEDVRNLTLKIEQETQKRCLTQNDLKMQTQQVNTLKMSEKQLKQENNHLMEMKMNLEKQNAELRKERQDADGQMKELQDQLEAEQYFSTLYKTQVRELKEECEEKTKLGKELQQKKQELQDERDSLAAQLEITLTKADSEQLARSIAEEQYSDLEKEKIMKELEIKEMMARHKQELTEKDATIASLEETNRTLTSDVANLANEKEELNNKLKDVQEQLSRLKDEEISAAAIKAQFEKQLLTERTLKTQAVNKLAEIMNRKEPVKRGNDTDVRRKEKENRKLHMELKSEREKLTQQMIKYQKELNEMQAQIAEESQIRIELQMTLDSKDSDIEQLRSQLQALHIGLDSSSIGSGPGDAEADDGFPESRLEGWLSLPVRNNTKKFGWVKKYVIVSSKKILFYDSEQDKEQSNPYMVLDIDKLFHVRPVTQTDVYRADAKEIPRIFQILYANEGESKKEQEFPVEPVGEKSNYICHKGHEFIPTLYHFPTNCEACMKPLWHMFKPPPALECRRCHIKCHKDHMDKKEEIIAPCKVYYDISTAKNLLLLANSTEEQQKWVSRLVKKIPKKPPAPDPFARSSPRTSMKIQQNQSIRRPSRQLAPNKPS

IC50 | Ki | Compound
3 nM |  | Cc1c[nH]c2nccc(Nc3ccc(Nc4cc(Cl)nc(N)n4)cc3F)c12
 | 6.3 nM | c1cc2ccc(CN3CCC[C@@H](Nc4ccc5[nH]ncc5c4)C3)cc2[nH]1
4 nM |  | Cc1c[nH]c2nccc(Nc3ccc(Nc4cc(C(F)(F)F)nc(N)n4)cc3F)c12
1310 nM |  | CSCc1ccc(CN2CCCC(Nc3ccc4[nH]ncc4c3)C2)cc1 (stereo not drawn)
10 nM |  | COc1cccc(CNC(=O)Nc2nc(-c3ccncc3)cs2)c1
100 nM |  | O=C([C@H](O)c1cccc(Cl)c1)N1CCN(c2ccc3[nH]ncc3c2)CC1
< 100 nM |  | NCC1(c2ccc(Cl)cc2)CCN(c2ncnc3[nH]ccc23)CC1
32.1 nM |  | C[C@H]1CN(C(=O)CN)CCCN1S(=O)(=O)c1cccc2cncc(F)c12
< 1 nM |  | COc1cccc(CNC(=O)c2c[nH]c3cc(-c4cn[nH]c4)ccc23)c1
< 30 nM |  | NCC1(c2ccc(OC(F)(F)F)cc2)CCN(c2ncnc3[nH]ccc23)CC1
 | 300 nM | C[C@@H](N)[C@]1(C)CC[C@@H](C(=O)Nc2ccncc2)CC1
99 nM |  | COCCN(C(=O)c1cccc(CNC(=O)c2ccc(OC)c(OC)c2)c1)c1ccc2c(c1)CNCC2
70 nM |  | Nc1nc(Nc2ccc(Sc3ccncc3)c(F)c2)cc(Oc2cccc(Cl)c2)n1
5 nM |  | Nc1nc(Nc2cc(F)c(Sc3ccncc3)c(F)c2)cc(N2C[C@H]3CCCN[C@H]3C2)n1
 | 1.3 nM | c1c[nH]c(CN2CCC[C@@H](Nc3ccc4[nH]ncc4c3)C2)n1
7 nM |  | Nc1nc(Nc2ccc(Cc3ccnc4[nH]ccc34)c(F)c2)cc(C(F)(F)F)n1
3100 nM |  | CN1CCCN(c2nc(-c3ccncc3)cnc2N)CC1
390 nM |  | C[C@@H](N)c1ccc(C(=O)Nc2ccncc2)cc1
< 1 nM |  | COc1cccc(CN(CCN(C)C)C(=O)c2nc3ccc(-c4cn[nH]c4)cc3s2)c1
19 nM |  | O=C(NCc1ccc(F)cc1)Nc1nc(-c2ccncc2)cs1
100 nM |  | Nc1nc(Nc2ccc(Oc3ccc4cn[nH]c4c3)c(F)c2)cc(-c2ccncc2)n1
> 100 nM |  | CN1CCCN(c2nc(-c3ccc4cn[nH]c4c3)cnc2N)CC1
90 nM |  | O=C(C(O)c1ccc(Br)cc1)N1CCN(c2ccc3[nH]ncc3c2)CC1 (stereo not drawn)
29 nM |  | CNCC(=O)N1CCCN(S(=O)(=O)c2cccc3cncc(F)c23)[C@@H](C)C1
7 nM |  | Nc1nc(Nc2ccc(Sc3ccncc3)c(F)c2)cc(-c2ccc3ncccc3c2)n1
12 nM |  | C[C@@H](NC(=O)Nc1nc(-c2ccncc2)cs1)c1ccccc1

Compound | IC50 | Ki
Nc1nccc2cc(CNCCc3ccccc3)ccc12 | 3160 nM | 
OC[C@@H](O)COc1cccc(CN2CCC[C@H](Nc3ccc4[nH]ncc4c3)C2)c1 | 323 nM | 
Nc1nc(Nc2ccc(Sc3ccncc3)c(F)c2)cc(N2C[C@H]3CCCN[C@H]3C2)n1 | 11 nM | 

biological target: PIK3CA (human) (UniProt P42336); test: Assessment of PIK3CA Kinase Activity; conditions: not given

IC50 | Compound
553 nM | CCNC(=O)Nc1ccc(-c2nc(N3CCO[C@@H](C)C3)c3cnn(C4CCN(C(=O)OCC)CC4)c3n2)cc1
4360 nM | CCNC(=O)Nc1ccc(-c2nc(N3CCO[C@H](C)C3)c3cnn(C4CCN(C(=O)OCC)CC4)c3n2)cc1
